Molecules are shown by their SMILES.

Ten molecules from patent US10041115B2, “3′-OH unblocked, fast photocleavable terminating nucleotides and methods for nucleic acid sequencing” (LASERGEN, INC., priority 2011, dated 2018) can be followed below.

A short description of assay [1]: Photochemical cleavage assays of incorporated nucleotide analogs (365 nm UV light, DT50). As to conditions: for DT50 in 1 mM NaN3, 50 mM DTT / DT50 in 1 mM NaN3, No DTT: 365 nm UV, 0.70 W/cm^2; for faster photochemical cleavage rates of ds2 isomers compared with their ds1 counterparts, factor: ds2 vs ds1 isomer of the same analog; for DT50 value of ds1 isomer compared with the parent dA.I analog: ds1 isomers of the α-isopropyl C^7-HOMedA set; for DT50 values: UV photochemical cleavage experiments. Format: physicochemical. As to the method: As used herein, the term “DT50” refers to the amount of time required to cleavage 50% of the base analog incorporated in the primer-template complex.
To compare the rates of photochemical cleavage between the nucleotide analogs described here, a protocol was developed to deliver a daily light intensity output of 0.70±0.01 W/cm^2 to samples, see below.
The power supply was turned on for about 30 min prior to that of the lamp and recirculation bath as described by the manufacturer. The IR liquid filter was cooled to 9° C. Light intensity was determined using a model PM100 power meter (Thorlabs), a 1000 μm pinhole (Edmund Optics), a modified 0.5 mL Eppendorf tube cut in half, and a 3-axis manual translation stage (Newport), see FIG. 5. The half cut Eppendorf tube was positioned in front of the pinhole and power meter detector head to account for the geometric shape distortion of the light as it passes through a reaction solution. The translation stage was then used to align the tube/pinhole/detector device with the highest intensity from the arc beam.
To stabilize its output, the lamp was left on for one hour prior to intensity measurements. Thereafter, the measured power was adjusted by increasing the current from the power supply. In order to achieve intensity (I) of 0.70 W/cm^2, the measured power (P) was adjusted to ˜5.5 mW, according to the equation:
[formula] where r is the radius of pinhole.
The beam was then focused by placing an 0.5 mL Eppendorf tube into the sample holder, the tube of which was modified with an internal alignment card to provide reference lines for volume heights of 10 μL and 20 μL, see FIG. 5. The reference lines enabled the beam to be centered for a given reaction volume. Beam alignment was further verified by observing the mercury arc image of the lamp produced by the rear reflector. A second alignment card was placed into the rotating sample holder to view the image, which when properly aligned using the reflector would produce an inverted arc image on the arc gap itself. This step ensured that arc hotspots were not superimposed, which could cause overheating while maintaining a power output of ˜5.5 mW. The speed of the rotating sample holder was adjusted within a range of 1,200-1,350 rpm using a Nova-Strobe DA Plus stroboscope (Monarch Instrument) by adjusting the motor's torque with an adjustment screw.
Photochemical cleavage assays: Nucleotide analogs were incorporated using 10 μL reactions, as described for the PEP assays, at a final concentration of 100 nM. […] OligoTemplate-2, oligoTemplate-5, and oligoTemplate-4 each hybridized with BODIPY-FL labeled primer-1 were used for C^7-HOMedA, C^7-HOMedG, and HOMedU analogs, respectively. OligoTemplate-8 hybridized with BODIPY-FL labeled primer-3 was used to assay HOMedC analogs. Incorporated reactions were quenched with either 1 mM sodium azide solution; 1 mM sodium azide, 50 mM DTT solution; or reagents C-G (see key in FIG. 4), exposed to 365 nm ultraviolet (UV) light for various time points using our UV deprotector, and then placed on ice.

The test system of assay [2] is DNA synthesis. The assay can be described thus: Termination assays (incorporation and termination of DNA synthesis). Format: biochemical. Conditions: 10 μM. The source says: Another class of 3′-OH unblocked nucleotides has been described by Mitra et al. (2003) and Turcatti et al. (2008), which rely on steric hindrance of the bulky dye group to stop incorporation after the addition of the first nucleotide. It is noted that the substituted 2-nitrobenzyl nucleotide analogs described by Wu et al. (2007), Litosh et al. (2011), and Gardner et al., 2012 cause termination of DNA synthesis without the requirement of bulky substituents such as fluorescent dyes. A further class of 3′-unblocked nucleotides has been described by Helicos Biosciences. These nucleotides use a second nucleoside or nucleotide analog that acts as an inhibitor of DNA synthesis (Bowers et al., 2009; U.S. Pat. No. 7,476,734). A significant difference in termination properties is observed when comparing compounds of the present invention with those described by Bowers. For example, Bowers et al. described pre-steady-state kinetics employing two-base homopolymer templates, for which kpol(+2) rates were measured for all of their 3′-OH unblocked ‘virtual’ terminators. Bowers et al. conducted their termination experiments at submicromolar nucleotide concentrations (i.e., from 100 to 250 nM), termination assays. In contrast, several compounds of the present invention were performed at 10 μM over the time course of 0.5 to 20 min. […]

Where [3] appears, read: Table 1, C^7-HOMedA analogs, average ± 1SD, triplicate.
[4] abbreviates: Table 3, reversible terminators.
Where [5] appears, read: Table 3, reversible terminators, [a] transient product considered as cleaved product.
Setting [6] is: Table 2, C^7-HOMedG analogs, average ± 1SD, triplicate.
The mark [7] stands for this setting: α-tert-butyl C^7-HOMedG analogs, ds1 isomers.

As for `COc1ccc(C(OCc2cn([C@H]3C[C@H](O)[C@@H](COP(=O)(O)OP(=O)(O)OP(=O)(O)O)O3)c3ncnc(N)c23)C(C)C)c([N+](=O)[O-])c1` (single isomer, unassigned) [dA.III.b ds2, 7-[1-(4-methoxy-2-nitrophenyl)-2-methyl-propyloxy]methyl-7-deaza-2′-deoxyadenosine-5′-triphosphate], in assay [1] (setting [3]), the “DT50 in 1 mM NaN3, 50 mM DTT” value worked out at 1.0 ± 0.1 s and the “DT50 in 1 mM NaN3, No DTT” value amounted to 1.1 ± 0.1 s. For the same molecule, in assay [1], the “faster photochemical cleavage rates of ds2 isomers compared with their ds1 counterparts, factor” value was found to be 6.4 ×.

As for `COc1ccc([N+](=O)[O-])c([C@@H](OCc2cn([C@H]3C[C@H](O)[C@@H](COP(=O)(O)OP(=O)(O)OP(=O)(O)O)O3)c3ncnc(N)c23)C(C)(C)C)c1` [dA.VI, 7-[(S)-1-(5-methoxy-2-nitrophenyl)-2,2-dimethyl-propyloxy]methyl-7-deaza-2′-deoxyadenosine-5′-triphosphate], the “DT50 in 1 mM NaN3, 50 mM DTT” value in assay [1] (setting [4]) stood at 0.8 ± 0.1 s. The “DT50 in 1 mM NaN3, No DTT” value in assay [1] (setting [5]) is 0.8 ± 0.1^[a] sec.

For `CC(C)C(OCc1cn([C@H]2C[C@H](O)[C@@H](COP(=O)(O)OP(=O)(O)OP(=O)(O)O)O2)c2ncnc(N)c12)c1c([N+](=O)[O-])cccc1[N+](=O)[O-]` (single isomer, unassigned) [dA.III.c ds1, 7-[1-(2,6-dinitrophenyl)-2-methyl-propyloxy]methyl-7-deaza-2′-deoxyadenosine-5′-triphosphate], in assay [1] (setting [3]), the “DT50 in 1 mM NaN3, 50 mM DTT” value was determined as 3.0 ± 0.2 s and the “DT50 in 1 mM NaN3, No DTT” value came to 3.4 ± 0.2 s. Further, the “DT50 value of ds1 isomer compared with the parent dA.I analog” value in assay [1] is “similar”.

As to `COc1cc(C(OCc2cn([C@H]3C[C@H](O)[C@@H](COP(=O)(O)OP(=O)(O)OP(=O)(O)O)O3)c3nc(N)[nH]c(=O)c23)C(C)(C)C)c([N+](=O)[O-])cc1OC` (single isomer, unassigned) [dG.V.d ds1, 7-[1-(4,5-dimethoxy-2-nitrophenyl)-2,2-dimethyl-propyloxy]methyl-7-deaza-2′-deoxyguanosine-5′-triphosphate], in assay [1] (setting [6]), the “DT50 in 1 mM NaN3, 50 mM DTT” value stood at 2.3 ± 0.2 s and the “DT50 in 1 mM NaN3, No DTT” value amounted to 2.4 ± 0.1 s. Also, in assay [1] (setting [7]), the “faster cleavage rates compared with mono-substituted 4-OMe isomer” value was 2.0 × and the “faster cleavage rates compared with mono-substituted 5-OMe isomer” value came out at 1.5 ×.

As for `COc1ccc([N+](=O)[O-])c(C(OCc2cn([C@H]3C[C@H](O)[C@@H](COP(=O)(O)OP(=O)(O)OP(=O)(O)O)O3)c3nc(N)[nH]c(=O)c23)C(C)(C)C)c1` (single isomer, unassigned) [dG.V.c ds2, 7-[1-(5-methoxy-2-nitrophenyl)-2,2-dimethyl-propyloxy]methyl-7-deaza-2′-deoxyguanosine-5′-triphosphate], in assay [1] (setting [6]), the “DT50 in 1 mM NaN3, 50 mM DTT” value is 0.8 ± 0.1 s and the “DT50 in 1 mM NaN3, No DTT” value came to 0.8 ± 0.1 s. Also, in assay [1], the DT50 values stood at 0.8 s and the “faster photochemical cleavage rates of ds2 isomers compared with their ds1 counterparts, factor” value turned out to be 4.4 ×. The “rate increases, dG.V.c compared with dG.V.a” value in assay [1] (same isomer (ds1 or ds2) of dG.V.c vs dG.V.a) worked out at 4.4 ×. Moreover, the “faster photochemical cleavage rates compared with the corresponding 4-OMe isomers” value in assay [1] (α-tert-butyl C^7-HOMedG analogs, 5-OMe vs 4-OMe) amounted to 1.4 × fold.

For the molecule `CC(C)(C)[C@H](OCc1cn([C@H]2C[C@H](O)[C@@H](COP(=O)(O)OP(=O)(O)OP(=O)(O)O)O2)c(=O)nc1N)c1ccccc1[N+](=O)[O-]` [dC.V, 5-[(S)-1-(2-nitrophenyl)-2,2-dimethyl-propyloxy]methyl-2′-deoxycytidine-5′-triphosphate], the “DT50 in 1 mM NaN3, 50 mM DTT” value in assay [1] (setting [4]) amounted to 1.0 ± 0.2 s. In addition, the “DT50 in 1 mM NaN3, No DTT” value in assay [1] (setting [5]) worked out at 1.2 ± 0.1 s.

With `COc1ccc([N+](=O)[O-])c([C@@H](OCc2cn([C@H]3C[C@H](O)[C@@H](COP(=O)(O)OP(=O)(O)OP(=O)(O)O)O3)c(=O)[nH]c2=O)C(C)(C)C)c1` [dU.VI, 5-[(S)-1-(5-Methoxy-2-nitrophenyl)-2,2-dimethyl-propyloxy]methyl-2′-deoxyuridine-5′-triphosphate], the “incorporated at the first base position” value in assay [2] (by 2 min) worked out at 100%. For the same molecule, the “signal at the expected second-base position (termination of DNA synthesis)” value in assay [2] (incubation times up to 20 min) is “No appreciable signal could be detected”. Further, the “DT50 in 1 mM NaN3, 50 mM DTT” value in assay [1] (setting [4]) was 0.7 ± 0.1 s. In addition, in assay [1] (setting [5]), the “DT50 in 1 mM NaN3, No DTT” value was 0.7 ± 0.1^[a] sec.

Consider `Nc1nc(=O)n([C@H]2C[C@H](O)[C@@H](COP(=O)(O)OP(=O)(O)OP(=O)(O)O)O2)cc1COCc1ccccc1[N+](=O)[O-]` [dC.I, 5-(2-nitrobenzyloxy)methyl-2′-deoxycytidine-5′-triphosphate], for which the “DT50 in 1 mM NaN3, 50 mM DTT” value in assay [1] (setting [4]) worked out at 1.6 ± 0.2 s. For the same molecule, the “DT50 in 1 mM NaN3, No DTT” value in assay [1] (setting [5]) amounted to 2.0 ± 0.3 s. Further, in assay [1], the DT50 values was found to be 2.0 s.

Turning to `COc1ccc([N+](=O)[O-])c([C@@H](OCc2cn([C@H]3C[C@H](O)[C@@H](COP(=O)(O)OP(=O)(O)OP(=O)(O)O)O3)c(=O)nc2N)C(C)(C)C)c1` [dC.VI, 5-[(S)-1-(5-methoxy-2-nitrophenyl)-2,2-dimethyl-propyloxy]methyl-2′-deoxycytidine-5′-triphosphate], in assay [1] (setting [4]), the “DT50 in 1 mM NaN3, 50 mM DTT” value stood at 0.6 ± 0.1 s. Moreover, in assay [1] (setting [5]), the “DT50 in 1 mM NaN3, No DTT” value is 0.6 ± 0.1^[a] sec.

`COc1ccc(C(OCc2cn([C@H]3C[C@H](O)[C@@H](COP(=O)(O)OP(=O)(O)OP(=O)(O)O)O3)c3ncnc(N)c23)C(C)C)c([N+](=O)[O-])c1` (single isomer, unassigned) [dA.III.b ds1, 7-[1-(4-methoxy-2-nitrophenyl)-2-methyl-propyloxy]methyl-7-deaza-2′-deoxyadenosine-5′-triphosphate]: in assay [1] (setting [3]), the “DT50 in 1 mM NaN3, 50 mM DTT” value came out at 6.1 ± 0.4 s and the “DT50 in 1 mM NaN3, No DTT” value worked out at 7.0 ± 0.3 s. Moreover, the “DT50 value of ds1 isomer compared with the parent dA.I analog” value in assay [1] was “higher”.
